Data: patent US6756373B1, “Pharmaceutically active compounds” (Pfizer Inc., priority 1999, dated 2004)

Compound	melting point
CCCOc1ncc(C#C[Si](C)(C)C)cc1-c1nc2c(CC)nn(CCN3CCOCC3)c2c(=O)[nH]1	132 to 134 °C
CCCCOc1ncc(-c2ccco2)cc1-c1nc2c(CC)n(CCOC)nc2c(=O)[nH]1 [Example 12, 5-[2-Butoxy-5-(2-furyl)-3-pyridinyl]-3-ethyl-2-(2-methoxyethyl)-2,6-dihydro-7H-pyrazolo[4,3-d]pyrimidin-7-one]	154 to 155 °C
CCCOc1ncc(C#N)cc1-c1nc2c(CCC)nn(C)c2c(=O)[nH]1 [Example 70, 5-(1-Methyl-7-oxo-3-propyl-6,7-dihydro-1-pyrazolo[4,3-d]pyrimidin-5-yl)-6-propoxynicotinonitrile]	174 to 176 °C
CCCc1nn(C)c2c(=O)[nH]c(-c3cc([N+](=O)[O-])cnc3OC3CCC3)nc12 [Example 88, 5-[2-(Cyclobutyloxy)-5-nitro-3-pyridinyl]-1-methyl-3-propyl-1,6-dihydro-7H-pyrazolo[4,3-d]pyrimidin-7-one]	212 to 214 °C
CCCc1nn(C)c2c(=O)[nH]c(-c3cc(NC(C)=O)cnc3OC3CCC3)nc12 [Example 89, N-[6-(Cyclobutyloxy)-5-(1-methyl-7-oxo-3-propyl-6,7-dihydro-1H-pyrazolo[4,3-d]pyrimidin-5-yl)-3-pyridinyl]acetamide]	279 to 281 °C
CCCc1nn(C)c2c(=O)[nH]c(-c3cc(N)cnc3OC3CCC3)nc12 [Example 90, 5-[5-Amino-2-(cyclobutyloxy)-3-pyridinyl]-1-methyl-3-propyl-1,6-dihydro-7H-pyrazolo[4,3-d]pyrimidin-7-one]	185 to 185.5 °C
CCCOc1ncc(NC(=O)N(C)C)cc1-c1nc2c(CCC)nn(C)c2c(=O)[nH]1 [Example 91, N′-[6-(Propoxy)-5-(1-methyl-7-oxo-3-propyl-6,7-dihydro-1H-pyrazolo[4,3-d]pyrimidin-5-yl)-3-pyridinyl]-N,N-dimethylurea]	219 to 220 °C
CCCOc1ncc(NC(C)=O)cc1-c1nc2c(CCC)nn(C)c2c(=O)[nH]1 [Example 92, N-[6-(Propoxy)-5-(1-methyl-7-oxo-3-propyl-6,7-dihydro-1H-pyrazolo[4,3-d]pyrimidin-5-yl)-3-pyridinyl]acetamide]	252 to 253 °C
CCCOc1ncc(N(C)C)cc1-c1nc2c(CCC)nn(C)c2c(=O)[nH]1 [Example 93, 5-[5-(Dimethylamino)-2-propoxy-3-pyridinyl]-1-methyl-3-propyl-1,6-dihydro-7H-pyrazolo[4,3-d]pyrimidin-7-one]	162 to 162.5 °C
CCCOC(=O)Nc1cnc(OCCC)c(-c2nc3c(CCC)nn(C)c3c(=O)[nH]2)c1 [Example 94, Propyl 5-(1-Methyl-7-oxo-3-propyl-6,7-dihydro-1H-pyrazolo[4,3-d]pyrimidin-5-yl)-6-propoxy-3-pyridinylcarbamate]	210 to 211 °C
CCCOc1ncc(I)cc1-c1nc2c(CC)nn(CCN3CCOCC3)c2c(=O)[nH]1 [Example 95, 3-Ethyl-5-(5-iodo-2-propoxy-3-pyridinyl)-1-[2-(4-morpholinyl)ethyl]-1,6-dihydro-7H-pyrazolo[4,3-d]pyrimidin-7-one]	175 to 177 °C
CCCOc1ncc(I)cc1-c1nc2c(CC)n(Cc3ccccn3)nc2c(=O)[nH]1 [Example 98, 5-(2-Propoxy-5-iodo-3-pyridinyl)-3-ethyl-2-(2-pyridinylmethyl)-2,6-dihydro-7H-pyrazolo[4,3-d]pyrimidin-7-one]	228.9 to 233.8 °C
C#Cc1cnc(OCCC)c(-c2nc3c(CC)nn(CCN4CCOCC4)c3c(=O)[nH]2)c1 [Example 107, 3-Ethyl-5-(5-ethynyl-2-propoxy-3-pyridinyl)-1-[2-(4-morpholinyl)ethyl]-1,6-dihydro-7H-pyrazolo[4,3-d]pyrimidin-7-one]	137 to 139 °C
C#Cc1cnc(OCCC)c(-c2nc3c(CC)n(C4CCN(C(=O)OC(C)(C)C)CC4)nc3c(=O)[nH]2)c1 [Example 112, tert-Butyl 4-[3-Ethyl-5-(5-ethynyl-2-propoxy-3-pyridinyl)-7-oxo-6,7-dihydro-2H-pyrazolo[4,3-d]pyrimidin-2-yl]-1-piperidinecarboxylate]	221 °C
CCCOc1ncc(C(C)=O)cc1-c1nc2c(CC)nn(CCN3CCOCC3)c2c(=O)[nH]1 [Example 113, 5-(5-Acetyl-2-propoxy-3-pyridinyl)-3-ethyl-1-[2-(4-morpholinyl)ethyl]-1,6-dihydro-7H-pyrazolo[4,3-d]pyrimidin-7-one]	140 to 143 °C
CCCOc1ncc(C(C)=O)cc1-c1nc2c(CC)n(C3CNC3)nc2c(=O)[nH]1 [Example 117, 5-(5-Acetyl-2-propoxy-3-pyridinyl)-2-(3-azetidinyl)-3-ethyl-2,6-dihydro-7H-pyrazolo[4,3-d]pyrimidin-7-one]	128.5 to 130 °C
CCCOc1ncc(C(C)=O)cc1-c1nc2c(CC)n(C3CN(C)C3)nc2c(=O)[nH]1 [Example 120, 5-(5-Acetyl-2-propoxy-3-pyridinyl)-3-ethyl-2-(1-methyl-3-azetidinyl)-2,6-dihydro-7H-pyrazolo[4,3-d]pyrimidin-7-one]	175.9 to 177 °C
CCCOc1ncc(C(C)=O)cc1-c1nc2c(CC)n(C3CN(C(C)=O)C3)nc2c(=O)[nH]1 [Example 121, 2-(1-Acetyl-3-azetidinyl)-5-(5-acetyl-2-propoxy-3-pyridinyl)-3-ethyl-2,6-dihydro-7H-pyrazolo[4,3-d]pyrimidin-7-one]	229.3 to 230.1 °C
CCCOc1ncc(C(C)=O)cc1-c1nc2c(CC)n(C3CCN(C(C)=O)CC3)nc2c(=O)[nH]1 [Example 122, 2-(1-acetyl-4-piperidinyl)-5-(5-acetyl-2-propoxy-3-pyridinyl)-3-ethyl-2,6-dihydro-7H-pyrazolo[4,3-d]pyrimidin-7-one]	213 to 214 °C
CCCOc1ncc(C(C)=O)cc1-c1nc2c(CC)n(C3CN(C(C)CC)C3)nc2c(=O)[nH]1 (stereo not shown) [Example 123, 5-(5-Acetyl-2-propoxy-3-pyridinyl)-2-(1-sec-butyl-3-azetidinyl)-3-ethyl-2,6-dihydro-7H-pyrazolo[4,3-d]pyrimidin-7-one]	176.5 to 177.7 °C
CCCOc1ncc(C(C)=O)cc1-c1nc2c(CC)n(C3CN(C(C)C)C3)nc2c(=O)[nH]1 [Example 124, 5-(5-Acetyl-2-propoxy-3-pyridinyl)-3-ethyl-2-(1-isopropyl-3-azetidinyl)-2,6-dihydro-7H-pyrazolo[4,3-d]pyrimidin-7-one]	162.8 to 163.6 °C
CCCOc1ncc(C(C)=O)cc1-c1nc2c(CC)n(C3CCN(C)CC3)nc2c(=O)[nH]1 [Example 125, 5-(5-Acetyl-2-propoxy-3-pyridinyl)-3-ethyl-2-(1-methyl-4-piperidinyl)-2,6-dihydro-7H-pyrazolo[4,3-d]pyrimidin-7-one]	219 to 220 °C
CCCCOc1ncc(C(C)=O)cc1-c1nc2c(CC)n(CC3CC3)nc2c(=O)[nH]1 [Example 127]	184 to 185 °C
CCOc1ncc(C(C)=O)cc1-c1nc2c(CC)n(CC3CC3)nc2c(=O)[nH]1 [Example 128]	200 to 201 °C
CCCCOc1ncc(C(C)=O)cc1-c1nc2c(CC)n(C3CCN(C(=O)OC(C)(C)C)CC3)nc2c(=O)[nH]1 [Example 129, tert-Butyl 4-[5-(5-Acetyl-2-butoxy-3-pyridinyl)-3-ethyl-7-oxo-6,7-dihydro-2H-pyrazolo[4,3-d]pyrimidin-2-yl]-1-piperidinecarboxylate]	194 to 195 °C
